Data set [1] deals with EndoC-βH1 cells. In words: CellTox Green cytotoxicity assay. Type of data set: cell-based. How it is done: Cytotoxicity Assay. Cell culture and experiments were performed in a 96-well plate in culture media without phenol red (Sigma, Cat. #D4947). Cytotoxicity in cell culture after experimental manipulation was continuously monitored based on the change in the fluorescence intensity of a CellTox Green Dye (Promega, Cat. #G8741) that preferentially stained dead cells with a loss of membrane integrity. The dye was 1:1000 diluted in the culture medium and delivered directly to cells at the same time of dose titrations of Glc+PA, zinc and cytokines. CellTox fluorescence signals were recorded on a FlexStation-3 multi-mode microplate reader with eight replicates at 0, 1, 2, 4, 6, 8, 20, 24, 30, and 48 hr following dye and stressor additions. Viable cells in the control cell culture medium produced no appreciable increases in CellTox fluorescence due to an excellent tolerance of EndoC-βH1 cells to the dye. At the end of experiment, all cells were lysed by adding detergent (DDM) to 0.1% in each well, and the maximum CellTox fluorescence intensity was recoded and used for normalization of the CellTox fluorescence intensity.
SLC30A8 knockdown. To perform gene silencing by RNA interference, a master mix of Opti-MEM reduced serum-free medium (Gibco, cat. #31985-062) was pre-mixed with 0.4% RNAiMAX transfection reagent (Invitrogen, cat. #13778-100) and 75 nM ZnT8 targeting or scrambled siRNA (OriGene cat. #SR325944). The solution was then incubated at room temperature for 10 min to form siRNA-lipid complexes before 50 μl of the master mix was added to each well in a 96-well plate. Cells resuspended in standard culturing media were added in a 1:1 volume to give 7×10^4 cells per well. After 24 h, the transfection media were replaced with complete culturing media. After additional 2 days, cells were exposed to 1× cytokine cocktail, followed by immunoblotting and cytotoxicity analysis as described above.

The test system of data set [2] is ZnT8. In words: Immunoblotting of ZnT8 (mAb20) in total cell lysate. As to conditions: 24 hr. Type of data set: cell-based, human. How it is done:
Immunoblotting. Cells in a 96-well plate were directly resuspended in 50 μl/well 1× Laemmli Sample Buffer (Bio-Rad cat. #1610737). An aliquot of 15 μl SDS-lysate was loaded onto a precast protein gel for SDS-PAGE and subsequent immunoblotting using the following antibodies directed to ZnT8 (mAb20), tubulin (Invitrogen, Cat. #MA1-83256), calnexin (Proteintech, Cat. #10427-2-AP), BAP31 (Proteintech, Cat. #11200-1-AP), IA2 (Proteintech, Cat. #10584-1-AP), TMED3 (Proteintech, Cat. #21902-1-AP), VAMP2 (Proteintech, Cat. #10135-1-AP), Golgin97 (Proteintech, Cat. #12640-1-AP) and HLA-I (Proteintech, Cat. #15240-1-AP). Protein band intensity was measured using ImageJ, and the numerical value for each stressor-treated protein sample was normalized to the untreated sample on the same immunoblot.
SLC30A8 knockdown. To perform gene silencing by RNA interference, a master mix of Opti-MEM reduced serum-free medium (Gibco, cat. #31985-062) was pre-mixed with 0.4% RNAiMAX transfection reagent (Invitrogen, cat. #13778-100) and 75 nM ZnT8 targeting or scrambled siRNA (OriGene cat. #SR325944). The solution was then incubated at room temperature for 10 min to form siRNA-lipid complexes before 50 μl of the master mix was added to each well in a 96-well plate. Cells resuspended in standard culturing media were added in a 1:1 volume to give 7×10^4 cells per well. […]
(In general: A western blot detects proteins with antibodies after separation by electrophoresis.)

Data set [3] concerns EndoC-βH1 cells. Kind of data set: Total cellular insulin content, HTRF insulin assay. Type of data set: cell-based, human. As to conditions: 24 hr. On the procedure: GSIS and insulin quantification. EndoC-βH1 cells with dose titrations of Glc+PA, zinc or cytokines cocktail in a 96-well plate were switched to a Krebs buffer (Alfa Aesar, cat. #J67795). After cell starvation in Krebs buffer for 1 h, EndoC-βH1 cells were replaced with fresh Krebs buffer containing 20 mM glucose plus 45 μM IBMX. After 45 min, the Krebs buffer was collected for measurement of secreted insulin. Cells were then lysed by 100 μl/well Krebs buffer with 1% DDM. Total insulin content was measured in 100-fold diluted cell lysate, A homogeneous time resolved fluorescence (HTRF) based ultra-sensitive insulin kit (Cisbio, cat. #62IN2PEG) was used to detect both secreted and total insulin as described previously (60).

For data set [4], the system named is endogenous ZnT8 in EndoC-βH1 cells. In words: In-cell ZnT8-ELISA tracking the endogenous ZnT8 level under stressor exposure. Type of data set: cell-based, human. How it is done: Stressor exposures. PA-BSA conjugation was prepared by adding PA powder to a final concentration of 8 mM in 1.6 mM FFA-free BSA (Sigma, Cat. #A7030-50G) pre-dissolved in 135 mM NaCl, 3.6 mM KCl, 0.5 mM MgCl2, and 10 mM HEPES (pH 7.4). The mixture was incubated with gentle stir at 37° C. and then filter-sterilized and stored at 4° C. as described previously (79). When added to the cell culture, the PA-BSA mixture was diluted 13.3-fold with supplement of glucose to make a 1× Glc+PA solution containing 0.6 mM PA and 48 mM Glc. A cytokine cocktail was prepared before each experiment by mixing individual stock solutions of IL-1β, IFN-γ, IL-17, […] at respective concentrations used previously on human islets and EndoC-PHI cells (37). 1× cytokine cocktail in the culture medium contained 5 ng/ml IL-1β, 10 ng/ml TNF-α, 50 ng/ml IFN-γ and 100 ng/ml IL-17 All cytokines were provided by R&D Systems (Minneapolis, MN, USA). […] After a designated exposure period, the endogenous ZnT8 level in each well was analyzed along with stress-induced cytotoxicity, GSIS and cellular insulin content. […]
In-cell ELISAs. […] The HRP reaction was terminated at 5 min by transferring the reaction mixture to a 96-well opaque microplate for chemiluminescence quantification on a FlexStation-3 multi-mode microplate reader.
For orientation: An ELISA detects its analyte on a solid surface through an enzyme-linked reagent.

The target in data set [5] is T1, ZnT8 (Homo sapiens, UniProt Q8IWU4).
T1 sequence (Q8IWU4 1-369): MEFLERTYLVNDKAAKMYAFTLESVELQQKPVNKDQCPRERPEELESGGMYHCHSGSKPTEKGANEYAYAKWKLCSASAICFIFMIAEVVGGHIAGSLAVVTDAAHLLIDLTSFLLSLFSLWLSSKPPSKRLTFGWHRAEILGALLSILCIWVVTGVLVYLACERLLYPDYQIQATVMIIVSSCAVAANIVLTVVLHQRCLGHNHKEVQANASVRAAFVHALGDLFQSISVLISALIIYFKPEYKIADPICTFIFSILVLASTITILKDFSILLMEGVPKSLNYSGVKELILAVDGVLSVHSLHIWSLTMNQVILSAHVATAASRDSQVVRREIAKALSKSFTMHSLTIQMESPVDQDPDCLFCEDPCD
As to conditions: cited from earlier work.

Setting [6] is: 1 μM epoxomicin with 1× cytokines.

On to `CC[C@H](C)[C@H](NC(=O)[C@H]([C@@H](C)CC)N(C)C(C)=O)C(=O)N[C@H](C(=O)N[C@@H](CC(C)C)C(=O)[C@@]1(C)CO1)[C@@H](C)O` [epoxomicin], for which the damaged cells with EndoC-βH1 cells [1] (combination of epoxomicin and 1× cytokine, 24 hr exposure) is 26.8%. Moreover, the “cytokine-induced downregulation of ZnT8” value in the data set on ZnT8 [2] (setting [6]) was “blocked”. Also, the ZnT8 expression entry in the data set on ZnT8 [2] (epoxomicin alone, 1 μM) is on record as “neither altered ZnT8 expression”. In addition, in the data set with EndoC-βH1 cells [3] (setting [6]), the “cytokine-induced downregulation of insulin” value was “blocked”.
Turning to `[Zn]` [zinc], in data set [4] (extracellular zinc from trace amount (EDTA chelation) to 600 μM), the “endogenous ZnT8 level, dose profile” value is given as “biphasic change”. Besides, the “zinc concentration at the peak of the biphasic ZnT8 profile” value in data set [4] (extracellular zinc up to 600 μM) is given as “around 10 μM”. In addition, in the data set on EndoC-βH1 cells [1] (600 μM zinc), the “zinc toxicity (CellTox, FIG. 2F)” value is given as “zinc toxicity was evident”. Further, the “cell integrity (CellTox fluorescence)” value in the data set with EndoC-βH1 cells [1] (modest zinc exposure (<=200 μM), compared to untreated cells) is on record as “did not alter the cell integrity”. Also, the “cellular insulin content, dose profile” value in the data set on EndoC-βH1 cells [3] (increasing stressor concentration) is recorded as “increased the insulin content”.

B1: mAb20: anti-ZnT8 monoclonal antibody; heavy chain and light chain SEQ ID NOS:32 and 37 (antibody)
heavy: MDMRVPAQLLGLLLLWLRGARCQIQLVQSGPELKKPGETVKISCKASGYIFTNYPMHWVKQAPGKGLKWMGWINTYSGVPTHADDFKGRFAFSLETSANSAFLQINNLKNEDTATYFCTRSRITPTGGYAMDYWGQGTSVTVSSAKTTPPSVYPLAPGSAAQTNSMVTLGCLVKGYFPEPVTVTWNSGSLSSGVHTFPAVLQSDLYTLSSSVTVPSSTWPSETVTCNVAHPASSTKVDKKIVPRDCGCKPCICTVPEVSSVFIFPPKPKDVLTITLTPKVTCVVVDISKDDPEVQFSWFVDDVEVHTAQTQPREEQFNSTFRSVSELPIMHQDWLNGKEFKCRVNSAAFPAPIEKTISKTKGRPKAPQVYTIPPPKEQMAKDKVSLTCMITDFFPEDITVEWQWNGQPAENYKNTQPIMDTDGSYFVYSKLNVQKSNWEAGNTFTCSVLHEGLHNHHTEKSLSHSPGK
light: MDMRVPAQLLGLLLLWLRGARCDVVMTQTPLSLPVSLGDQASISCRSSQSLVHSNGNTYLHWYLQKPGQSPNLLISKVSNRFSGVPERFSGSGSGTDFTLKISRVEAEDLGVYFCSQNTHVPWTFGGGTKLEIKRADAAPTVSIFPPSSEQLTSGGASVVCFLNNFYPKDINVKWKIDGSERQNGVLNSWTDQDSKDSTYSMSSTLTLTKDEYERHNSYTCEATHKTSTSPIVKSFNRNEC
modifications: mAb20 heavy chain; mAb20 light chain
Turning to B1, the binding affinity entry with ZnT8 [5] is given as “subnanomolar”.

B2: mAb39: anti-ZnT8 monoclonal antibody; heavy chain and light chain SEQ ID NOS:52 and 57 (antibody)
heavy: MGWSCIMFFLVATATDVHSQVQLQQPGAELVKPGASVKLSCKASGYSFTTYWMHWVKQRPGQGLEWVGDINPRNGRTNYNEKSKSKATLTVDISSSTVYMQVSSLTSEDSAVYYCAIWSGAMDYWGPGTSVTVSSAKTTAPSVYPLAPVCGDTTGSSVTLGCLVKGYFPEPVTLTWNSGSLSSDVHTFPALLQSGLYTLSSSVTVTTWPSQTITCNVAHPASSTKVDKKIEPRGSPTHKPCPPCPAPNLLGGPSVFIFPPKIKDVLMISLSPMVTCVVVDVSEDDPDVHVSWFVNNVEVHTAQTQTHREDYNSTIRVVSALPIQHQDWMSGKEFKCKVNNKALPAPIERTISKPKGPVRAPQVYVLPPPEEEMTKKQVTLTCMITDFMPEDIYVEWTNNGQTELNYKNTEPVLDSDGSYFMYSKLRVEKKNWVERNSYSCSVVHEGLHNHHTTKSFSRSPGK
light: MKLPVRLLVLMFWIPASSSDVVMTQTPLSLPVSLGDQPSISCKSSQSLVHNNGNTYLHWYLQKPGQSPKLLIYKVSNRFSGVPDRFSGSGSGTDFTLKISRVEAEDLGVYFCSQTTHVPPTFGGGTKLEIKRADAAPTVSIFPPSSEQLTSGGASVVCFLNNFYPKDINVKWKIDGSERQNGVLNSWTDQDSKDSTYSMSSTLTLTKDEYERHNSYTCEATHKTSTSPIVKSFNRGEC
modifications: mAb39 heavy chain; mAb39 light chain
Turning to B2, the binding affinity result with ZnT8 [5] is recorded as “subnanomolar”.

The record behind these values is patent US12366570B2, “Cell-based ZNT8 assay” (THE JOHNS HOPKINS UNIVERSITY, priority 2019, dated 2025).
